# Reference: patent US12195476B2, “Synthesis method of furoimidazopyridine compound, crystal form of furoimidazopyridine compound, and crystal form of salt thereof” (HANGZHOU HIGHLIGHTLL PHARMACEUTICAL CO., LTD, priority 2019, dated 2025)
# Where a name gives a salt, the structure may show the parent alone. Read-outs that look alike come from different tables or passages of the source.
# How the values were obtained:
# Format in all cases: physicochemical
# [1] = Solubility test in water, SGF, FaSSIF and FeSSIF (37° C., HPLC); conditions: for solubility at 30 min / solubility at 2 h / solubility at 4 h / solubility at 24 h: 37 °C, thermodynamic from solid, read-out: Solubility (based on a compound of formula I); for solubility at 30 min / solubility at 2 h / solubility at 4 h / solubility at 24 h / Solubility (based on a compound of formula I): 37° C.; for difference in the equilibrium solubilities (24 h) between crystal form 1 and crystal form D: FaSSIF and FeSSIF, result in words
# Protocol: 4 samples, each of crystal form 1 of a compound of formula I and crystal form D of a phosphate of a compound of formula I each with appropriate amount were weighed and placed into a 4 mL transparent glass bottle respectively, 1 mL of water, simulated gastric fluid (SGF), fasted-state simulated intestinal fluid (FaSSIF) and fed-state simulated intestinal fluid (FeSSIF) were added respectively, sample suspension was obtained and quickly placed on a shaker (37° C., 200 rpm) and the shaker was shaked, the samples were observed 5 minutes later, a quantity of samples or medium were supplemented to obtain mild suspension, samples were taken at 30 minutes, 2 hours, 4 hours and 24 hours, respectively, centrifuged for 10 minutes at 12000 rpm, the supernatants were collected, diluted appropriately and then were tested by a higher performance liquid chromatography.
# The sample concentrations were calculated with an external standard method.
# [2] = Dynamic vapor sorption (DVS) hygroscopicity test; conditions: for Hygroscopicity: weight gain by moisture absorption: 0% RH-95% RH, 25° C.; for change of crystal form before and after the DVS test: result in words
# Protocol: (§1) DSC, TGA and DVS tests were conducted for crystal form A of a hydrochloride of a compound of formula I, crystal form B of a sulfate of a compound of formula I, crystal form C of a hydrobromide of a compound of formula I and crystal form D of a phosphate of a compound of formula I.
# [3] = Stability test at high temperature and in accelerated conditions (HPLC purity, XRPD, DSC); conditions: for Stability study: Crystal form: 2 weeks (XRPD); for 2-week physical and chemical stabilities: high temperature (60° C.) and accelerated conditions (40° C./75% RH), result in words
# Protocol: About 1 mg of crystal form 1 of a compound of formula I and 1 mg of crystal form D of a phosphate of a compound of formula I samples were weighed and each was placed into a 40 mL transparent glass bottle, the samples were placed in a stability chamber in accelerated conditions (40° C./75% RH, open) and at a high temperature (60° C., sealed) respectively. For the open samples, the bottle cap was removed and the bottle neck was covered with aluminium-foil paper stabbed with pinholes to avoid cross contamination; for the closed samples, each bottle was covered with a cap and sealed tightly. Samples were taken at week 1 and week 2, respectively, after diluted with diluent (acetonitrile/water (1/1) (v/v), the liquid phases were injected according to the chromatographic conditions in Table 12 to determine sample purities.
# The sample purities were calculated with an area normalization method.
# [4] = DSC test of salt crystal forms (thermostability); conditions: single and higher melting points, result in words
# Protocol: as §1
smiles,measurement,setting,value
"C[C@@H](O)c1nc2cnc3ccoc3c2n1[C@H]1CC[C@H](CC#N)OC1 [2-[(2R,5S)-5-[2-[(R)-1-hydroxyethyl]furo[3,2-b]imidazo[4,5-d]pyridin-1-yl]tetrahydropyran-2-yl]acetonitrile]",solubility at 30 min,"[1]; fasted-state simulated intestinal fluid (FaSSIF), fassif, Fasted-state simulated intestinal fluid (FaSSIF), 30 min",170 µg/mL
same,solubility at 2 h,"[1]; fasted-state simulated intestinal fluid (FaSSIF), fassif, Fasted-state simulated intestinal fluid (FaSSIF), 2 h",170 µg/mL
same,solubility at 4 h,"[1]; fasted-state simulated intestinal fluid (FaSSIF), fassif, Fasted-state simulated intestinal fluid (FaSSIF), 4 h",170 µg/mL
same,solubility at 24 h,"[1]; fasted-state simulated intestinal fluid (FaSSIF), fassif, Fasted-state simulated intestinal fluid (FaSSIF), 24 h",160 µg/mL
same,solubility at 30 min,"[1]; fed-state simulated intestinal fluid (FeSSIF), fessif, Fed-state simulated intestinal fluid (FeSSIF), 30 min",260 µg/mL
same,solubility at 2 h,"[1]; fed-state simulated intestinal fluid (FeSSIF), fessif, Fed-state simulated intestinal fluid (FeSSIF), 2 h",230 µg/mL
same,solubility at 4 h,"[1]; fed-state simulated intestinal fluid (FeSSIF), fessif, Fed-state simulated intestinal fluid (FeSSIF), 4 h",220 µg/mL
same,solubility at 24 h,"[1]; fed-state simulated intestinal fluid (FeSSIF), fessif, Fed-state simulated intestinal fluid (FeSSIF), 24 h",240 µg/mL
same,solubility at 30 min,"[1]; simulated gastric fluid (SGF), simulated gastric fluid, Simulated gastric fluid (SGF), 30 min",30200 µg/mL
same,solubility at 2 h,"[1]; simulated gastric fluid (SGF), simulated gastric fluid, Simulated gastric fluid (SGF), 2 h",29700 µg/mL
same,solubility at 4 h,"[1]; simulated gastric fluid (SGF), simulated gastric fluid, Simulated gastric fluid (SGF), 4 h",29500 µg/mL
same,solubility at 24 h,"[1]; simulated gastric fluid (SGF), simulated gastric fluid, Simulated gastric fluid (SGF), 24 h (equilibrium)",30200 µg/mL
"C[C@@H](O)c1nc2cnc3ccoc3c2n1[C@H]1CC[C@H](CC#N)OC1 [Crystal form 1 of a compound of formula I] [2-[(2R,5S)-5-[2-[(R)-1-hydroxyethyl]furo[3,2-b]imidazo[4,5-d]pyridin-1-yl]tetrahydropyran-2-yl]acetonitrile]",Hygroscopicity: weight gain by moisture absorption,[2]; DVS,5.2%
same,Hygroscopicity: weight gain by moisture absorption,"[2]; DVS, listed as crystal form 1 of a compound of formula I",5.2%
same,water remaining after desorption,"[2]; DVS, desorption 95% RH to 0% RH",2%
same,difference in the equilibrium solubilities (24 h) between crystal form 1 and crystal form D,[1],no obvious difference
same,Solubility (based on a compound of formula I),"[1]; Fasted-state simulated intestinal fluid (FaSSIF), 30 min",170 µg/mL
same,Solubility (based on a compound of formula I),"[1]; Fasted-state simulated intestinal fluid (FaSSIF), 2 h, listed as Crytstal form 1 of a compound of formula I",190 µg/mL
same,Solubility (based on a compound of formula I),"[1]; Fasted-state simulated intestinal fluid (FaSSIF), 4 h, listed as Crytstal form 1 of a compound of formula I",160 µg/mL
same,Solubility (based on a compound of formula I),"[1]; Fasted-state simulated intestinal fluid (FaSSIF), 24 h, listed as Crytstal form 1 of a compound of formula I",170 µg/mL
same,Solubility (based on a compound of formula I),"[1]; Simulated gastric fluid (SGF), 30 min, listed as Crytstal form 1 of a compound of formula I",16520 µg/mL
same,Solubility (based on a compound of formula I),"[1]; Simulated gastric fluid (SGF), 2 h, listed as Crytstal form 1 of a compound of formula I",16710 µg/mL
same,Solubility (based on a compound of formula I),"[1]; Simulated gastric fluid (SGF), 4 h, listed as Crytstal form 1 of a compound of formula I",16880 µg/mL
same,Solubility (based on a compound of formula I),"[1]; Simulated gastric fluid (SGF), 24 h (equilibrium), listed as Crytstal form 1 of a compound of formula I",16420 µg/mL
same,Solubility (based on a compound of formula I),"[1]; Water, 30 min, listed as Crytstal form 1 of a compound of formula I",160 µg/mL
same,Solubility (based on a compound of formula I),"[1]; Water, 2 h, listed as Crytstal form 1 of a compound of formula I",180 µg/mL
same,Solubility (based on a compound of formula I),"[1]; Water, 4 h, listed as Crytstal form 1 of a compound of formula I",160 µg/mL
same,Solubility (based on a compound of formula I),"[1]; Water, 24 h (equilibrium), listed as Crytstal form 1 of a compound of formula I",180 µg/mL
same,Stability study (purity),[3]; 0 day,98.74 Area %
same,Stability study (purity),"[3]; 40° C./75% RH, open, 1 week",98.71 Area %
same,Stability study (purity),"[3]; 40° C./75% RH, open, 2 weeks",98.77 Area %
same,Stability study: Crystal form,"[3]; 40° C./75% RH, open",Unchanged
same,Stability study (purity),"[3]; 60° C., sealed, 1 week",98.73 Area %
same,Stability study (purity),"[3]; 60° C., sealed, 2 weeks",98.74 Area %
same,Stability study: Crystal form,"[3]; 60° C., sealed",Unchanged
same,2-week physical and chemical stabilities,[3],good
"C[C@@H](O)c1nc2cnc3ccoc3c2n1[C@H]1CC[C@H](CC#N)OC1 [Crystal form B of a sulfate of a compound of formula I] [2-[(2R,5S)-5-[2-[(R)-1-hydroxyethyl]furo[3,2-b]imidazo[4,5-d]pyridin-1-yl]tetrahydropyran-2-yl]acetonitrile]",Hygroscopicity: weight gain by moisture absorption,[2]; DVS,9.4%
same,Hygroscopicity: weight gain by moisture absorption,"[2]; DVS, listed as crystal form B of a sulfate of a compound of formula I",9.4%
same,change of crystal form before and after the DVS test,[2],no significant changes
same,thermostability of the crystal form,[4],relatively good
"C[C@@H](O)c1nc2cnc3ccoc3c2n1[C@H]1CC[C@H](CC#N)OC1 [Crystal form D of a phosphate of a compound of formula I] [2-[(2R,5S)-5-[2-[(R)-1-hydroxyethyl]furo[3,2-b]imidazo[4,5-d]pyridin-1-yl]tetrahydropyran-2-yl]acetonitrile]",Hygroscopicity: weight gain by moisture absorption,[2]; DVS,4.7%
same,Hygroscopicity: weight gain by moisture absorption,"[2]; DVS, listed as crystal form D of a phosphate of a compound of formula I",4.7%
same,change of crystal form before and after the DVS test,[2],no significant changes
same,difference in the equilibrium solubilities (24 h) between crystal form 1 and crystal form D,[1],no obvious difference
same,Solubility (based on a compound of formula I),"[1]; Fed-state simulated intestinal fluid (FeSSIF), 30 min",360 µg/mL
same,Solubility (based on a compound of formula I),"[1]; Fed-state simulated intestinal fluid (FeSSIF), 2 h",220 µg/mL
same,Solubility (based on a compound of formula I),"[1]; Fed-state simulated intestinal fluid (FeSSIF), 4 h",190 µg/mL
same,Solubility (based on a compound of formula I),"[1]; Fed-state simulated intestinal fluid (FeSSIF), 24 h",210 µg/mL
same,equilibrium solubility (24 h) relative to crystal form 1 of a compound of formula I,[1]; SGF,2 times
same,Solubility (based on a compound of formula I),"[1]; Water, 30 min",1850 µg/mL
same,Solubility (based on a compound of formula I),"[1]; Water, 2 h",1780 µg/mL
same,Solubility (based on a compound of formula I),"[1]; Water, 4 h",1730 µg/mL
same,Solubility (based on a compound of formula I),"[1]; Water, 24 h (equilibrium)",1800 µg/mL
same,equilibrium solubility (24 h) relative to crystal form 1 of a compound of formula I,[1]; water,10 times
same,Stability study (purity),[3]; 0 day,99.13 Area %
same,Stability study (purity),"[3]; 40° C./75% RH, open, 1 week",99.11 Area %
same,Stability study (purity),"[3]; 40° C./75% RH, open, 2 weeks",99.10 Area %
same,Stability study: Crystal form,"[3]; 40° C./75% RH, open",Unchanged
same,Stability study (purity),"[3]; 60° C., sealed, 1 week",99.11 Area %
same,Stability study (purity),"[3]; 60° C., sealed, 2 weeks",99.11 Area %
same,Stability study: Crystal form,"[3]; 60° C., sealed",Unchanged
same,2-week physical and chemical stabilities,[3],good
same,thermostability of the crystal form,[4],relatively good
